On the set-up of data set [1]: species or system SD rats. The conditions noted are these: rat, in vivo, po, 88 mg. How it is done: The microcapsules were orally administered to 7 week-old male SD rats (Sprague Dawley, Samtako, 4 rats per one group, 7 days feeding ad libitum) by using Sonde. Blood samples were taken from the rats in a predetermined time interval, and the respective pharmacokinetic profiles were evaluated.

Data set [2] in a line: physchem. The conditions noted are these: water, thermodynamic from solid. How it is done:
Each of distilled water and artificial intestinal juice (pH 6.8; USP) was added thereto to fill 100 mL, and the mixture was vigorously blended for 1 hr and passed through a 0.45 μm filter, followed by HPLC analysis.

For data set [3] the following is noted: fenofibric acid in plasma; cited from earlier work.

Converted amounts (≈) assume the structure as drawn. Read-outs that look alike come from different tables or passages of the source.

For orientation: Cmax means the maximum level reached in the sampled fluid or tissue. Consider `CC(C)(Oc1ccc(C(=O)c2ccc(Cl)cc2)cc1)C(=O)[O-].C[N+](C)(C)CCO` [Choline fenofibrate], for which, in data set [1], the “AUC 0-24” value was 3477.7 ± 558.9 µg·h/mL and the Cmax was determined as 309.4 ± 62.2 µg/mL.
For the molecule `CC(C)OC(=O)C(C)(C)Oc1ccc(C(=O)c2ccc(Cl)cc2)cc1` [Fenofibrate], in data set [1] (male, Sprague-Dawley), the “AUC 0-24” value stood at 2078.3 ± 610.5 µg·h/mL and the Cmax was found to be 137.2 ± 37.9 µg/mL.
One may read the solubility as the concentration that dissolves in the medium under given conditions. Molecule `CC(C)(Oc1ccc(C(=O)c2ccc(Cl)cc2)cc1)C(=O)O` [Fenofibric acid, 2-[4-(4-chlorobenzoyl)phenoxy]-2-methyl-propanoic acid] returned a solubility at 1 hr in data set [2] of 165 µg/mL (≈ 518 µM). For the same molecule, in data set [1] (male, Sprague-Dawley), the “AUC 0-24” value was 2742.2 ± 218.1 µg·h/mL and the Cmax came out at 209.3 ± 26.1 µg/mL. For the same molecule, in data set [3], the “half-life of elimination in plasma” value was “about 20 hours” and the “time of peak plasma levels after administration” value was “about 5 hours”.

(Values after US20130022684A1 (HANMI SCIENCE CO., LTD., priority 2010, published 2013).)
